Converted amounts (≈) assume the structure as drawn.
How the values were obtained:
[1] = tested on: Serratia marcescens ES-75; test: Antibacterial activity (MIC), Serratia marcescens ES-75; type: cell-based; conditions: ES75
[2] = tested on: Staphylococcus aureus 209-P; test: Antibacterial activity (MIC), Staphylococcus aureus 209-P; type: cell-based
[3] = tested on: Pseudomonas aeruginosa EP-01; test: Antibacterial activity (MIC), Pseudomonas aeruginosa EP-01; type: cell-based; conditions: EP01
[4] = tested on: Citrobacter freundii EC-34; test: Antibacterial activity (MIC), Citrobacter freundii EC-34; type: cell-based; conditions: EC34; Citrobacter freundii EC-34, β Lactamase producing bacteria
[5] = tested on: Pseudomonas maltophilia E04004; test: Antibacterial activity (MIC), Pseudomonas maltophilia E04004; type: cell-based; conditions: Stenotrophomonas maltophilia
[6] = tested on: Staphylococcus aureus E31106; test: Antibacterial activity (MIC), Staphylococcus aureus E31106; type: cell-based; conditions: Staphylococcus aureus E31106, β Lactamase producing bacteria
Escherichia coli NIHJ = test: Antibacterial activity (MIC), Escherichia coli NIHJ; type: cell-based
[7] = Acute toxicity, LD50 (mouse, intravenous injection); conditions: in vivo
Description: Acute toxicity [LD50 (mouse, intravenous injection)] of the following compounds was more than 3 g/kg.

Row | Compound | MIC [1] [µg/mL] | MIC [2] [µg/mL] | MIC [3] [µg/mL] | MIC [4] [µg/mL] | MIC [5] [µg/mL] | MIC [6] [µg/mL] | MIC (Escherichia coli NIHJ) [µg/mL] | LD50 [7] [mg/kg]
1 | CO/N=C(\C(=O)N[C@@H]1C(=O)N2C(C(=O)[O-])=C(C[N@+]3(C)CCC[C@H]3C(N)=O)CS[C@H]12)c1csc(N)n1 [Control Compound, reference compound] | 0.2 (≈ 0.382 µM) | 1.56 (≈ 2.98 µM) | 6.25 (≈ 11.9 µM) | 0.2 (≈ 0.382 µM) | 12.5 (≈ 23.9 µM) | 50 (≈ 95.5 µM) | 0.1 (≈ 0.191 µM) | –
2 | CO/N=C(\C(=O)N[C@@H]1C(=O)N2C(C(=O)[O-])=C(C[N@+]3(C)CCC[C@H]3CO)CS[C@H]12)c1nsc(N)n1 [Example 1-A, 7β-[2-(5-Amino-1,2,4-thiadiazol-3-yl)-(Z)-2-methoxyiminoacetamido]-3-[(2S)-hydroxymethyl-(1S)-methylpyrrolidinio]methyl-3-cephem-4-carboxylate] | 0.1 (≈ 0.195 µM) | 1.56 (≈ 3.05 µM) | 0.8 (≈ 1.56 µM) | 0.05 (≈ 0.0977 µM) | 6.25 (≈ 12.2 µM) | 6.25 (≈ 12.2 µM) | 0.025 (≈ 0.0489 µM) | > 3000
3 | CO/N=C(\C(=O)N[C@@H]1C(=O)N2C(C(=O)[O-])=C(C[N@@+]3(C)CCC[C@H]3CO)CS[C@H]12)c1nsc(N)n1 [Example 1-B, 7β-[2-(5-Amino-1,2,4-thiadiazol-3-yl)-(Z)-2-methoxyiminoacetamido]-3-[ (2S)-hydroxymethyl-(1R)-methylpyrrolidinio]methyl-3-cephem-4-carboxylate] | 0.1 (≈ 0.195 µM) | 1.56 (≈ 3.05 µM) | 1.56 (≈ 3.05 µM) | 0.1 (≈ 0.195 µM) | 6.25 (≈ 12.2 µM) | 12.5 (≈ 24.4 µM) | 0.1 (≈ 0.195 µM) | –
4 | CO/N=C(\C(=O)N[C@@H]1C(=O)N2C(C(=O)[O-])=C(C[N@+]3(C)CCC[C@H]3C(N)=O)CS[C@H]12)c1nsc(N)n1 [Example 2, 7β-[2-(5-Amino-1,2,4-thiadiazol-3-yl)-(Z)-2-methoxyiminoacetamido]-3-[(2S)-carbamoyl-(1S)-methylpyrrolidinio]methyl-3-cephem-4-carboxylate] | 0.1 (≈ 0.191 µM) | 1.56 (≈ 2.97 µM) | 1.56 (≈ 2.97 µM) | 0.05 (≈ 0.0953 µM) | 3.13 (≈ 5.97 µM) | 12.5 (≈ 23.8 µM) | < 0.025 | > 3000
5 | CO/N=C(\C(=O)N[C@@H]1C(=O)N2C(C(=O)[O-])=C(C[N@+]3(C)CCC[C@H]3C)CS[C@H]12)c1nsc(N)n1 [Example 3, 7β-[2-(5-Amino-1,2,4-thiadiazol-3-yl)-(Z)-2-methoxyiminoacetamido]-3-[(1S,2R)-dimethylpyrrolidinio]methyl-3-cephem-4-carboxylate] | 0.2 (≈ 0.404 µM) | 1.56 (≈ 3.15 µM) | 1.56 (≈ 3.15 µM) | 0.2 (≈ 0.404 µM) | 6.25 (≈ 12.6 µM) | 12.5 (≈ 25.2 µM) | 0.2 (≈ 0.404 µM) | > 3000
6 | CO/N=C(\C(=O)N[C@@H]1C(=O)N2C(C(=O)[O-])=C(C[N@+]3(C)CCC[C@H]3CO)CS[C@H]12)c1csc(N)n1 [Example 5, 7β-[2-(2-Aminothiazol-4-yl)-(Z)-2-methoxyiminoacetoamido]-3-[(2S)-hydroxymethyl-(1S)-methylpyrrolidinio]methyl-3-cephem-4-carboxylate] | 0.1 (≈ 0.196 µM) | 0.8 (≈ 1.57 µM) | 3.13 (≈ 6.13 µM) | 0.05 (≈ 0.0979 µM) | 12.5 (≈ 24.5 µM) | 25 (≈ 49 µM) | 0.05 (≈ 0.0979 µM) | > 3000
